Several values for one entry are separate records, joined by “and”; a condition that tells them apart may be missing. Equal values may be shown once. Read-outs that look alike come from different tables or passages of the source.
How the values were obtained:
[1] = system: p-CREB (phosphorylated cAMP response-element binding protein) in human whole blood; test: p-CREB assay in human whole blood by flow cytometry (NECA stimulation, CD4 staining); format: cell-based
Method: Assay protocol for p-CREB (phosphorylated cAMP response-element binding protein) in human whole blood by flow cytometry
Fresh human whole blood (Biological Specialty Corporation) was added at 100 ul per wellinto a 96-well plate and treated with test compounds (Serial dilutions of 1:3 with starting concentration at 30 uM, 11 concentrations total, in the presence of adenosine deaminase) for one hour at room temperature on a plate shaker. Then 10 ul of 10× NECA (50 uM stock in PBS) and 10 ul of 10 × Rolipram (50 uM stock in PBS) were added, with designated wells for unstimulated (Rolipram+DMSO) and stimulated (Rolipram+NECA+DMSO) conditions. The plates were mixed well and incubated at room temperature for 30 min on a plate shaker. 1× lyse/Fix buffer (5× stock, BD #558049) was warmed to 37° in a water bath. 1200 ul of pre-warmed 1× lyse/Fix buffer was then added to the plate, which was then sealed and mixed by inverting the plate a few times. The plate was then incubated for 30 min at 37° in a water bath. After incubation, the plate was centrifuged at 1600 rpm for 5 min and the supernatant was decanted, then 1200 ul PBS was added and the plate was mixed by inverting a few times followed by centrifuging at 1600 rpm for 5 min and again decanting the supernatant. Then, 200 ul FIX PERM buffer II (BD #558052) was added and the plate was mixed well, then kept on ice for 45 min After spinning the plate at 1600 rpm for 5 min the supernatant was again decanted. Then was added 200 ul staining buffer (BD #554657), and the plate was mixed well and spun at 1600 rpm for 5 min, then the supernatant was again decanted. 200 ul staining buffer was added, the plate was mixed well and the plate was sealed at this step for storage at 4° overnight or until staining. Before staining, the plate was spun at 1600 rpm for 5 min and the supernatant was again decanted. Antibody mix in staining buffer was prepared (75 ul/well, 1:50 dilution for p-CREB antibody from Cell Signaling Tech #14001S, 1:200 dilution for CD4 antibody from BD #566320) and the cells were resuspended in the above antibody mix solution. After mixing well, the plate was incubated (shielded from light) at room temperature for two hours on a plate shaker. It was then spun at 1600 rpm for 5 min and the supernatant was decanted. 200 ul staining buffer was then added to wash cells, and the plate was then mixed by shaking or pipetting. The wash step was repeated at least one more time, and after the final wash, cells were resusptended in 200 ul staining buffer in U bottom plate for flow cytometry analysis.

Adenosine A2A receptor = Adenosine A2A receptor (Homo sapiens, UniProt P29274); test: cAMP assay in 293A cells stably expressing the adenosine A2A receptor (CGS21680 stimulation, HTRF); format: cell-based; parameters: expressed in transfected cells; host or cells: 293A cells (Invitrogen, Cat# R705-07) infected with A2A-expressing lentivirus (custom packaged by Biosettia), puromycin selected; conditions: 0.1% BSA, read-out: cAMP (nM) 0.1% BSA, 1 uM CGS
[2] = Homo sapiens, replicate values separated by /
[3] = replicate values separated by /
[4] = 293A cells stably expressing A2A receptor, 1 uM CGS21680 stimulation, replicate values separated by /

Sequence of Adenosine A2A receptor (P29274 whole entry): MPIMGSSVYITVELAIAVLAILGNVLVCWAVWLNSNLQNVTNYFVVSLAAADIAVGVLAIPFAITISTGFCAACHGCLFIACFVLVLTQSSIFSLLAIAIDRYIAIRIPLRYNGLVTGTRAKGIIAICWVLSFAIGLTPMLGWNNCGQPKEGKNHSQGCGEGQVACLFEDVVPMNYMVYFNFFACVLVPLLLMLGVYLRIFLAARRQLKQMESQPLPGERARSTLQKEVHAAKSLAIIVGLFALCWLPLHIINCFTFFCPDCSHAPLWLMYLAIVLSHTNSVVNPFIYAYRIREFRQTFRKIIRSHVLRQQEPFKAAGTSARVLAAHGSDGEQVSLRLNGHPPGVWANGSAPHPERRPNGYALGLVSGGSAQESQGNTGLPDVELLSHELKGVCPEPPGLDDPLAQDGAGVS

IC50 ([1]; Homo sapiens) [nM]	IC50 (Adenosine A2A receptor; 293A-A2AR cells, 1 uM CGS)	IC50 [1] [nM]	IC50 [1, 2] [nM]	IC50 [1, 3] [nM]	IC50 (Adenosine A2A receptor; [4])	SMILES
13.1	230 nM and 119 nM and 72 nM	10.7	–	–	–	CNc1cccc(COc2nc(N)nc(-c3ccc(F)cc3)c2-c2cc(C)nc(C(F)F)c2)n1 [Example 379, 5-(2-(difluoromethyl)-6-methylpyridin-4-yl)-4-(4-fluorophenyl)-6-((6-(methylamino)pyridin-2-yl)methoxy)pyrimidin-2-amine]
60	231 nM and 114 nM and 100 nM	–	–	–	–	CNC(C)(C)c1cccc(COc2nc(N)nc(-c3ccc(F)cc3)c2-c2cc(C)nc(C(F)F)c2)n1 [Example 389, 5-(2-(difluoromethyl)-6-methylpyridin-4-yl)-4-(4-fluorophenyl)-6-((6-(2-(methylamino)propan-2-yl)pyridin-2-yl)methoxy)pyrimidin-2-amine]
–	–	–	43.6	26.2	20 nM and 70 nM and 68 nM and 141 nM	CCC(CC)(C(=O)O)c1cccc(COc2nc(N)nc(-c3ccc(F)cc3)c2-c2cc(C)nc(C(F)F)c2)n1 [Example 398, 2-(6-(((2-amino-5-(2-(difluoromethyl)-6-methylpyridin-4-yl)-6-(4-fluorophenyl)pyrimidin-4-yl)oxy)methyl)pyridin-2-yl)-2-ethylbutanoic acid]
–	–	–	692	–	515 nM and 579 nM and 560 nM	Cc1cc(-c2c(OCc3cccc(N(CCO)CCO)n3)nc(N)nc2-c2ccc(F)cc2)cc(C(F)F)n1 [Example 402, 2,2′-((6-(((2-amino-5-(2-(difluoromethyl)-6-methylpyridin-4-yl)-6-(4-fluorophenyl)pyrimidin-4-yl)oxy)methyl)pyridin-2-yl)azanediyl)bis(ethan-1-ol)]
–	–	–	108	–	249 nM and 322 nM and 311 nM	CNCc1cccc(COc2nc(N)nc(-c3ccc(F)cc3)c2-c2cc(C)nc(C(F)F)c2)n1 [Example 403, 5-(2-(difluoromethyl)-6-methylpyridin-4-yl)-4-(4-fluorophenyl)-6-((6-((methylamino)methyl)pyridin-2-yl)methoxy)pyrimidin-2-amine]
–	–	–	91.5	–	107 nM and 88 nM	Cc1cc(-c2c(OCc3cccc(C(C)(C)NCCO)n3)nc(N)nc2-c2ccc(F)cc2)cc(C(F)F)n1 [Example 407, 2-((2-(6-(((2-amino-5-(2-(difluoromethyl)-6-methylpyridin-4-yl)-6-(4-fluorophenyl)pyrimidin-4-yl)oxy)methyl)pyridin-2-yl)propan-2-yl)amino)ethan-1-ol]
–	–	–	20	–	97 nM and 142 nM and 124 nM and 178 nM	COC(=O)NCc1cccc(COc2nc(N)nc(-c3ccc(F)cc3)c2-c2cc(C)nc(C(F)F)c2)n1 [Example 410, methyl((6-(((2-amino-5-(2-(difluoromethyl)-6-methylpyridin-4-yl)-6-(4-fluorophenyl)pyrimidin-4-yl)oxy)methyl)pyridin-2-yl)methyl)carbamate]
–	–	–	16	–	97 nM and 152 nM and 129 nM	CNC(=O)NCc1cccc(COc2nc(N)nc(-c3ccc(F)cc3)c2-c2cc(C)nc(C(F)F)c2)n1 [Example 415, 1-((6-(((2-amino-5-(2-(difluoromethyl)-6-methylpyridin-4-yl)-6-(4-fluorophenyl)pyrimidin-4-yl)oxy)methyl)pyridin-2-yl)methyl)-3-methylurea]
–	–	–	38.7	–	60 nM and 44 nM	Cc1cc(-c2c(OCc3cccc(C(C)(C)NC(CO)CO)n3)nc(N)nc2-c2ccc(F)cc2)cc(C(F)F)n1 [Example 417, 2-((2-(6-(((2-amino-5-(2-(difluoromethyl)-6-methylpyridin-4-yl)-6-(4-fluorophenyl)pyrimidin-4-yl)oxy)methyl)pyridin-2-yl)propan-2-yl)amino)propane-1,3-diol]
–	–	–	89.3	–	191 nM and 177 nM	Cc1cc(-c2c(OCc3cccc(CNCCO)n3)nc(N)nc2-c2ccc(F)cc2)cc(C(F)F)n1 [Example 418, 2-(((6-(((2-amino-5-(2-(difluoromethyl)-6-methylpyridin-4-yl)-6-(4-fluorophenyl)pyrimidin-4-yl)oxy)methyl)pyridin-2-yl)methyl)amino)ethan-1-ol]
–	–	–	87.8	–	470 nM and 311 nM	Cc1cc(-c2c(OCc3cccc(CNC(CO)CO)n3)nc(N)nc2-c2ccc(F)cc2)cc(C(F)F)n1 [Example 419, 2-(((6-(((2-amino-5-(2-(difluoromethyl)-6-methylpyridin-4-yl)-6-(4-fluorophenyl)pyrimidin-4-yl)oxy)methyl)pyridin-2-yl)methyl)amino)propane-1,3-diol]
–	–	–	55.7	–	122 nM and 112 nM	Cc1cc(-c2c(OCc3cccc(OC(CO)CO)n3)nc(N)nc2-c2ccc(F)cc2)cc(C(F)F)n1 [Example 420]

The next lines start with the compound.

SMILES	IC50 ([1]; Homo sapiens) [nM]	IC50 (Adenosine A2A receptor; 293A-A2AR cells, 1 uM CGS)	IC50 [1] [nM]	IC50 [1, 2] [nM]	IC50 [1, 3] [nM]	IC50 (Adenosine A2A receptor; [4])
Cc1cc(-c2c(OCc3nc4ccccc4n3C(F)F)nc(N)nc2-c2ccc(F)cc2)cc(C(F)F)n1 [Example 355, 4-((1-(difluoromethyl)-1H-benzo[d]imidazol-2-yl)methoxy)-5-(2-(difluoromethyl)-6-methylpyridin-4-yl)-6-(4-fluorophenyl)pyrimidin-2-amine]	5.7	10.2 nM and 11 nM and 13 nM	–	–	–	–
Cc1cc(-c2c(OCCN(C)c3nccc(C(C)(C)C(=O)O)n3)nc(N)nc2-c2ccc(F)cc2)cc(C(F)F)n1 [Example 373, 2-(2-((2-((2-amino-5-(2-(difluoromethyl)-6-methylpyridin-4-yl)-6-(4-fluorophenyl)pyrimidin-4-yl)oxy)ethyl)(methyl)amino)pyrimidin-4-yl)-2-methylpropanoic acid]	421	240 nM and 248 nM and 387 nM and 191 nM	–	–	–	–
Cc1cc(-c2c(OCc3nccc4ccccc34)nc(N)nc2-c2ccc(F)cc2)cc(C(F)F)n1 [Example 381, 5-(2-(difluoromethyl)-6-methylpyridin-4-yl)-4-(4-fluorophenyl)-6-(isoquinolin-1-ylmethoxy)pyrimidin-2-amine]	36	16 nM and 3.2 nM	–	–	–	–
Cc1cc(-c2c(OCc3cccc(C(C)(C)C(=O)O)n3)nc(N)nc2-c2ccc(F)cc2)cc(C(F)(F)F)n1 [Example 385, 2-(6-(((2-amino-6-(4-fluorophenyl)-5-(2-methyl-6-(trifluoromethyl)pyridin-4-yl)pyrimidin-4-yl)oxy)methyl)pyridin-2-yl)-2-methylpropanoic acid]	1460	2330 nM and 1020 nM	–	–	–	–
Cc1cc(-c2c(OCc3cccc(C4(C(=O)O)CC4)n3)nc(N)nc2-c2ccc(F)cc2)cc(C(F)F)n1 [Example 391, 1-(6-(((2-amino-5-(2-(difluoromethyl)-6-methylpyridin-4-yl)-6-(4-fluorophenyl)pyrimidin-4-yl)oxy)methyl)pyridin-2-yl)cyclopropane-1-carboxylic acid]	602	1130 nM and 979 nM	–	–	–	–
Cc1cc(-c2c(OCc3cccc(C4(C(=O)O)CCC4)n3)nc(N)nc2-c2ccc(F)cc2)cc(C(F)F)n1 [Example 392, 1-(6-(((2-amino-5-(2-(difluoromethyl)-6-methylpyridin-4-yl)-6-(4-fluorophenyl)pyrimidin-4-yl)oxy)methyl)pyridin-2-yl)cyclobutane-1-carboxylic acid]	353	186 nM and 139 nM and 180 nM and 209 nM	–	–	–	–
Cc1cc(-c2c(OCc3cccc(-c4nn[nH]n4)n3)nc(N)nc2-c2ccc(F)cc2)cc(C(F)F)n1 [Example 399, 4-((6-(2H-tetrazol-5-yl)pyridin-2-yl)methoxy)-5-(2-(difluoromethyl)-6-methylpyridin-4-yl)-6-(4-fluorophenyl)pyrimidin-2-amine]	–	–	–	201	–	273 nM and 362 nM and 482 nM and 440 nM
Cc1cc(-c2c(OCCN3CCCc4cccnc43)nc(N)nc2-c2ccc(F)cc2)cc(C(F)F)n1 [Example 408, 5-(2-(difluoromethyl)-6-methylpyridin-4-yl)-4-(2-(3,4-dihydro-1,8-naphthyridin-1 (2H)-yl)ethoxy)-6-(4-fluorophenyl)pyrimidin-2-amine]	–	–	–	37.9	–	68 nM and 41 nM and 19 nM and 74 nM
Cc1cc(-c2c(OCc3ccnc(N)n3)nc(N)nc2-c2ccc(F)cc2)cc(C(F)F)n1 [Example 413, 4-((2-aminopyrimidin-4-yl)methoxy)-5-(2-(difluoromethyl)-6-methylpyridin-4-yl)-6-(4-fluorophenyl)pyrimidin-2-amine]	–	–	–	50.2	40.8	4.5 nM and 19 nM and 14 nM

From patent US20210355104A1, “ADENOSINE RECEPTOR BINDING COMPOUNDS” (Nikang Therapeuticsm Inc., priority 2018, published 2021)
